According to patent US8129371B2, “Thienopyrimidine and pyrazolopyrimidine compounds and their use as mTOR kinase and PI3 kinase inhibitors” (Wyeth LLC, priority 2007, dated 2012):
Where two headings read alike, the source gives them in different places.

Legend:
Human mTOR (FLAG-TOR) = molecular target: T1, Human mTOR (FLAG-TOR) (Homo sapiens, UniProt P42345); assay: Human mTOR kinase assay with purified enzyme, DELFIA format; assay type: biochemical
T1 construct: FLAG
Procedure: Enzymes are first diluted in kinase assay buffer (10 mM HEPES (pH 7.4), 50 mM NaCl, 50 mM β-glycerophosphate, 10 mM MnCl2, 0.5 mM DTT, 0.25 mM microcystin LR, and 100 mg/mL BSA). To each well, 12 μL of the diluted enzyme is mixed briefly with 0.5 μL test inhibitor or control vehicle dimethylsulfoxide (DMSO). […] The reaction plate is incubated for 2 hours (linear at 1-6 hours) at room temperature with gentle shaking and then terminated by adding 25 μL Stop buffer (20 mM HEPES (pH 7.4), 20 mM EDTA, 20 mM EGTA). […] The DELFIA Assay buffer and Enhancement solution can be purchased from PerkinElmer. 45 μL of the terminated kinase reaction mixture is transferred to a MaxiSorp plate (Nunc) containing 55 μL PBS. The His6-S6K is allowed to attach for 2 hours after which the wells are aspirated and washed once with PBS. 100 μL of DELFIA Assay buffer with 40 ng/mL Eu—P(T389)-S6K antibody is added. The antibody binding is continued for 1 hour with gentle agitation. The wells are then aspirated and washed 4 times with PBS containing 0.05% Tween-20 (PBST). 100 μL of DELFIA Enhancement solution is added to each well and the plates are read in a PerkinElmer Victor model plate reader. Data obtained is used to calculate enzymatic activity and enzyme inhibition by potential inhibitors.

PI3K [1] = molecular target: T2, PI3K (Homo sapiens, UniProt P42336); assay: Fluorescence polarization assay for PI3K; assay type: biochemical; conditions: read-out: PI3 Kinase α IC50
T2 construct: PI3 Kinase α IC50; other: PI3 Kinase α; other: PI3 Kinase α isoform, fluorescence polarization
T2 sequence (P42336 whole entry, canonical isoform): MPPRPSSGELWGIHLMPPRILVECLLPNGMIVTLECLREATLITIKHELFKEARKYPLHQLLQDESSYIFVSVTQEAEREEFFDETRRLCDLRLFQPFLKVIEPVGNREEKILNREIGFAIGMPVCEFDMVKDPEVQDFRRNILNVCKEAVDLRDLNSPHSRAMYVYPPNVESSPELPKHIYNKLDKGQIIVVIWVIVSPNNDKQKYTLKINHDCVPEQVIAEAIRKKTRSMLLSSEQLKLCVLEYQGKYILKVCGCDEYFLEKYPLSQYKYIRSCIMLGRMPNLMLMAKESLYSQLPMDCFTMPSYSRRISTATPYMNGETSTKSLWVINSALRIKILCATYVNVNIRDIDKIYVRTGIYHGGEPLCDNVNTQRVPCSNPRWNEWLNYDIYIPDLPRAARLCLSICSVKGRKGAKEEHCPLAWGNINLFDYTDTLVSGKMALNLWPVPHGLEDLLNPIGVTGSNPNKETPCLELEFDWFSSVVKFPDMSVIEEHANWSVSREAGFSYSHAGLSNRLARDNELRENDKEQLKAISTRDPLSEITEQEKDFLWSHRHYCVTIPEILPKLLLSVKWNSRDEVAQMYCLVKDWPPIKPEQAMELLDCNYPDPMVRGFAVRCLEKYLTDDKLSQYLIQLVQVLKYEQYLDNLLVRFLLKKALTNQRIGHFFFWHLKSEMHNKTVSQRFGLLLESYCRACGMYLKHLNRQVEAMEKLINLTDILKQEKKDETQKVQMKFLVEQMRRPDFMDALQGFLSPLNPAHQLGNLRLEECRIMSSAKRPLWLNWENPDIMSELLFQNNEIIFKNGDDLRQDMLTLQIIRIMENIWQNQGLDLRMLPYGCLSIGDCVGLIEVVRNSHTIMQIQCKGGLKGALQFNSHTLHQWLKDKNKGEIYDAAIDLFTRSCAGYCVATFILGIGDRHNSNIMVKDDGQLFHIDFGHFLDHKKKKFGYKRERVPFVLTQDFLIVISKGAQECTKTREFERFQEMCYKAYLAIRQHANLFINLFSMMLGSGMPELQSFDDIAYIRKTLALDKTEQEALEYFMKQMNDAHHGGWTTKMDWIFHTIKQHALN
Procedure: (§1) This assay is used to determine the IC50 of compounds of the present invention as it identifies inhibitors of PI3 kinase by measuring inhibition.
(§2) The assay is run by placing 5 μL of diluted enzyme per well, then 5 μL of diluted compound (or 9.5 μL enzyme then 0.5 μL compound in DMSO) is added and mixed. Then, 10 μL substrate is added to start the reaction. The samples are incubated 30-60 minutes, then the reaction is stopped by adding 20 μL stop/detector mix. PI3K is diluted with reaction buffer (e.g., 5 μL or 7.5 μL PI3K into 620 μL reaction buffer), and 5 μL of diluted enzyme is used per well. 5 μL reaction buffer or drug diluted in buffer (e.g., 4 μL/100 so final DMSO is 1% in reaction) is added to each. Pipetting up and down mixes the samples. Alternatively, the enzyme can be diluted to 1215 μL. In this case 9.8 μL is added per well and 0.2 μL compound is added in DMSO. To prepare 1 mL of substrate solution, 955 μL reaction buffer, 40 μL PIP2, and 2.5 μL ATP are mixed. 10 μL of substrate is added to each well to start the reaction.
(§3) Stop/detector mix is prepared by mixing 4 μL Red detector and 1.6 μL or 2.0 μL GST-GRP with 1 mL Stop buffer, which results in 10 nM probe and 70 nM GST-GRP). 20 μL of the stop/detector mix is added to each well to stop the reaction. The plates are read after 30-90 minutes keeping the red probe solutions dark. For the zero time point, stop/detector mix is added to the enzyme just before adding substrate. For an extra control, stop/detector mix is added to buffer (no enzyme) and substrate or to just buffer (no substrate). […] Plates are read on machines with filters for Tamra. The units are mP with no enzyme controls reading app 190-220 mP units. Fully active enzyme reduces fluorescence polarization down to 70-100 mP after 30 minutes.

PI3K [2] = molecular target: T3, PI3K (Homo sapiens, UniProt P48736); assay: Fluorescence polarization assay for PI3K; assay type: biochemical; conditions: read-out: PI3 Kinase γ IC50
T3 construct: PI3 Kinase γ IC50; other: PI3 Kinase γ; other: PI3 Kinase γ isoform, fluorescence polarization
T3 sequence (P48736 whole entry, canonical isoform): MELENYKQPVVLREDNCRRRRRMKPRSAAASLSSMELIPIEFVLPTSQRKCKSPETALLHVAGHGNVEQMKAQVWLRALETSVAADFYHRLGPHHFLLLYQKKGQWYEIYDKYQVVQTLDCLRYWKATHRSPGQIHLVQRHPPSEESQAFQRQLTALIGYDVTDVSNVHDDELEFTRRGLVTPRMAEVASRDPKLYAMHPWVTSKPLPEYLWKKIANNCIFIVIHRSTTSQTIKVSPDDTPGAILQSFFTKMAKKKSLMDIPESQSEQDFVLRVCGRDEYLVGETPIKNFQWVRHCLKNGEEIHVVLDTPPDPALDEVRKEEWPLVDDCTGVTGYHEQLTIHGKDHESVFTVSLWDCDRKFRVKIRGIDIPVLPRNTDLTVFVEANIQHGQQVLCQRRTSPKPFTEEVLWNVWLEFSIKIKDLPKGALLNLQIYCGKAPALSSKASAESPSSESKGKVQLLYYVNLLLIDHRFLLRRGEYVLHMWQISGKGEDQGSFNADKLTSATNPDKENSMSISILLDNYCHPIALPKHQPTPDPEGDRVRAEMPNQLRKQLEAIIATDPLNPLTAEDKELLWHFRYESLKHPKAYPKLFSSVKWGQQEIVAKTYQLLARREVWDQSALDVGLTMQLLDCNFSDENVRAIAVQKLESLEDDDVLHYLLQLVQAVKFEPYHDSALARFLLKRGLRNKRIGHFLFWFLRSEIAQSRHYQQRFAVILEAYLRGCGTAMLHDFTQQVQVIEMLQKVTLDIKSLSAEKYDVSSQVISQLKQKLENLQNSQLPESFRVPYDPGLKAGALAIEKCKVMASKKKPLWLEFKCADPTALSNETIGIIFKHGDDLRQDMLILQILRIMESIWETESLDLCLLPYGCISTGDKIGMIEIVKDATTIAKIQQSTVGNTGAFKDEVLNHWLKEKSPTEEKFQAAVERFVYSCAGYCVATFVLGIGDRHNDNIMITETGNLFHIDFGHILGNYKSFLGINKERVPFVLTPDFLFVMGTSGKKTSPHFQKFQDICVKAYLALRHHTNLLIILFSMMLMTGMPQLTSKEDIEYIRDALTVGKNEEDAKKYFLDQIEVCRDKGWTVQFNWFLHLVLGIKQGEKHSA
Procedure: as §1, §2, §3

prostate line LNCap = assay: In vitro cell culture growth assay (MTS), LNCap; assay type: cell-based; conditions: Homo sapiens, LNCaP, 72 h, LNCap cells, three days after drug treatment
Procedure: (§4) Human tumor cell lines used include prostate lines LNCap and PC3MM2, breast lines MDA468, MCF7, renal line HTB44 (A498), colon line HCT116, and ovarian line OVCAR3. Cells were plated in 96-well culture plates. One day following plating, the inhibitors were added to cells. Three days after drug treatment, viable cell densities were determined by metabolic conversion (by viable cells) of the dye MTS, a well-established cell proliferation assay. The assays were performed using an assay kit purchased from Promega Corp. (Madison, Wis.) following the protocol supplied with the kit. The MTS assay results were read in a 96-well plate reader by measuring absorbance at 490 nm. The effect of each treatment was calculated as percent of control growth relative to the vehicle-treated cells grown in the same culture plate.

breast line MDA468 = assay: In vitro cell culture growth assay (MTS), MDA468; assay type: cell-based; conditions: Homo sapiens, 72 h, MDA468 cells, three days after drug treatment
Procedure: as §4

[3] = purified human mTOR enzyme, DELFIA format
[4] = PI3 Kinase α isoform, fluorescence polarization
[5] = PI3 Kinase γ isoform, fluorescence polarization

Row | Compound | IC50 (Human mTOR (FLAG-TOR)) | IC50 (PI3K [1]; PI3 Kinase α) | IC50 (PI3K [2]; PI3 Kinase γ) | IC50 (prostate line LNCap) | IC50 (breast line MDA468) | IC50 (Human mTOR (FLAG-TOR); [3]) | IC50 (PI3K [1]; [4]) | IC50 (PI3K [2]; [5])
1 | O=C(Nc1ccncc1)Nc1ccc(-c2nc(N3CC4CCC(C3)O4)c3cnn(C4CCN(Cc5cccnc5)CC4)c3n2)cc1 [Example 19, 1-(4-{4-(8-oxa-3-azabicyclo[3.2.1]oct-3-yl)-1-[1-(pyridin-3-ylmethyl)piperidin-4-yl]-1H-pyrazolo[3,4-d]pyrimidin-6-yl}phenyl)-3-pyridin-4-ylurea] | 0.14 nM | 223 nM | 391 nM | < 0.8 nM | < 0.8 nM |  |  | 
2 | CNC(=O)Nc1ccc(-c2nc(N3CC4CCC(C3)O4)c3cnn(C(C)(C)C)c3n2)cc1 [Example 93] | 0.41 nM | 202 nM | > 10000 nM | 23 nM | 170 nM |  |  | 
3 | O=C(Nc1ccc(-c2nc(N3CC4CCC(C3)O4)c3cnn(C4CCC5(CC4)OCCO5)c3n2)cc1)OCCO [Example 121, 2-hydroxyethyl {4-[1-(1,4-dioxaspiro[4.5]dec-8-yl)-4-(8-oxa-3-azabicyclo[3.2.1]oct-3-yl)-1H-pyrazolo[3,4-d]pyrimidin-6-yl]phenyl}carbamate] | 0.5 nM | 7650 nM | > 10000 nM | 2 nM | 63 nM |  |  | 
4 | COCC(COC)n1ncc2c(N3CC4CCC(C3)O4)nc(-c3ccc(NC(=O)Nc4ccc(N5CCN(C)CC5)cc4)cc3)nc21 [Example 327, 1-(4-{1-[2-methoxy-1-(methoxymethyl)ethyl]-4-(8-oxa-3-azabicyclo[3.2.1]oct-3-yl)-1H-pyrazolo[3,4-d]pyrimidin-6-yl}phenyl)-3-[4-(4-methylpiperazin-1-yl)phenyl]urea] |  |  |  | 3 nM | 50 nM | 3.75 nM | 764 nM | 3490 nM
5 | CN1CCN(c2ccc(NC(=O)Nc3ccc(-c4nc(N5CC6CCC(C5)O6)c5cnn(CC(F)(F)F)c5n4)cc3)cn2)CC1 [Example 262, 1-[6-(4-methylpiperazin-1-yl)pyridin-3-yl]-3-{4-[4-(8-oxa-3-azabicyclo[3.2.1]oct-3-yl)-1-(2,2,2-trifluoroethyl)-1H-pyrazolo[3,4-d]pyrimidin-6-yl]phenyl}urea] | 0.515 nM | 191 nM | 1360 nM | 1 nM | 5 nM |  |  | 
6 | CCn1ncc2c(N3CC4CCC(C3)O4)nc(-c3ccc(NC(=O)NCC(=O)NCCN(C)C)cc3)nc21 [Example 278] | 42 nM | 311 nM | 494 nM | 2200 nM | 5200 nM |  |  | 
7 | CCn1ncc2c(N3CC4CCC(C3)O4)nc(-c3ccc(NC(=O)NCCN4CCN(C)CC4)cc3)nc21 [Example 178, 1-{4-[1-ethyl-4-(8-oxa-3-azabicyclo[3.2.1]oct-3-yl)-1H-pyrazolo[3,4-d]pyrimidin-6-yl]phenyl}-3-[2-(4-methylpiperazin-1-yl)ethyl]urea] | 87 nM | 959 nM | > 10000 nM | 1900 nM | 5800 nM |  |  | 
8 | COC(=O)N1CCC(n2ncc3c(N4CC5CCC(C4)O5)nc(-c4ccc(NC(=O)NCCF)cc4)nc32)CC1 [Example 10, methyl 4-[6-(4-{[(2-fluoroethyl)carbamoyl]amino}phenyl)-4-(8-oxa-3-azabicyclo[3.2.1]oct-3-yl)-1H-pyrazolo[3,4-d]pyrimidin-1-yl]piperidine-1-carboxylate] | 0.34 nM | 4930 nM | 6590 nM | 12 nM | 220 nM |  |  | 
9 | CCNC(=O)Nc1ccc(-c2nc(N3C4CCC3COC4)c3cnn(C4CCN(C(=O)OC)CC4)c3n2)cc1 [Example 357, methyl 4-[6-{4-[(ethylcarbamoyl)amino]phenyl}-4-(3-oxa-8-azabicyclo[3.2.1]oct-8-yl)-1H-pyrazolo[3,4-d]pyrimidin-1-yl]piperidine-1-carboxylate] |  |  |  | 9 nM | 70 nM | 0.625 nM | 5550 nM | 9160 nM
10 | CCNC(=O)Nc1ccc(-c2nc(N3CC4CCC(C3)O4)c3cnn(C4CCN(C(=O)C(C)C)CC4)c3n2)cc1 [Example 83, 1-ethyl-3-{4-[1-(1-isobutyrylpiperidin-4-yl)-4-(8-oxa-3-azabicyclo[3.2.1]oct-3-yl)-1H-pyrazolo[3,4-d]pyrimidin-6-yl]phenyl}urea] | 0.76 nM | 2350 nM | > 10000 nM | 40 nM | 240 nM |  |  | 
11 | COC(=O)Nc1ccc(-c2nc(N3CC4CCC(C3)O4)c3cnn(C4CCC(=O)CC4)c3n2)cc1 [Example 136, methyl {4-[4-(8-oxa-3-azabicyclo[3.2.1]oct-3-yl)-1-(4-oxocyclohexyl)-1H-pyrazolo[3,4-d]pyrimidin-6-yl]phenyl}carbamate] | 6.25 nM | 3900 nM | > 10000 nM | 40 nM | 1100 nM |  |  | 
12 | COC(=O)N1CCC(n2ncc3c(N4CC5CCC(C4)O5)nc(-c4ccc(NC(=O)OCCN(C)C)cc4)nc32)CC1 [Example 115, methyl 4-{6-[4-({[2-(dimethylamino)ethoxy]carbonyl}amino)phenyl]-4-(8-oxa-3-azabicyclo[3.2.1]oct-3-yl)-1H-pyrazolo[3,4-d]pyrimidin-1-yl}piperidine-1-carboxylate] | 360 nM | 5060 nM | 8930 nM | 1600 nM | 4600 nM |  |  | 
13 | CNC(=O)Nc1ccc(-c2nc(N3C4COCC3C(O)C4)c3cnn(CC(F)(F)F)c3n2)cc1 (centres unmarked) [Example 390, 1-{4-[4-(6-hydroxy-3-oxa-8-azabicyclo[3.2.1]oct-8-yl)-1-(2,2,2-trifluoroethyl)-1H-pyrazolo[3,4-d]pyrimidin-6-yl]phenyl}-3-methylurea] |  |  |  | 12000 nM | 10000 nM | 540 nM |  | 
14 | Nc1ccc(-c2nc(N3CC4CCC(C3)O4)c3cnn(CC(F)(F)F)c3n2)cc1 [Example 374, 4-[4-(8-oxa-3-azabicyclo[3.2.1]oct-3-yl)-1-(2,2,2-trifluoroethyl)-1H-pyrazolo[3,4-d]pyrimidin-6-yl]aniline] |  |  |  | 1000 nM | 5500 nM | 57 nM |  | 
15 | COC(=O)N1CCC(n2ncc3c(N4CC5CCC(C4)O5)nc(-c4ccc(NC(=O)NC5CC5)cc4)nc32)CC1 [Example 12, methyl 4-[6-{4-[(cyclopropylcarbamoyl)amino]phenyl}-4-(8-oxa-3-azabicyclo[3.2.1]oct-3-yl)-1H-pyrazolo[3,4-d]pyrimidin-1-yl]piperidine-1-carboxylate] | 0.52 nM |  | > 10000 nM | 23 nM | 300 nM |  |  | 
16 | CNC(=O)Nc1ccc(-c2nc(N3CC4CCC(C3)O4)c3sc(CN4CCN(C)CC4)cc3n2)cc1 [Example 423, 1-methyl-3-(4-{6-[(4-methylpiperazin-1-yl)methyl]-4-(8-oxa-3-azabicyclo[3.2.1]oct-3-yl)thieno[3,2-d]pyrimidin-2-yl}phenyl)urea] |  |  |  |  | 1000 nM | 19.5 nM | 322 nM | 5720 nM
